Measured values: patent US20260285850A1, “SUBSTITUTED OXAZOLIDINONES AND IMIDAZOLINONES AS HERBICIDES” (FMC CORPORATION, priority 2023, published 2026)

How the values were obtained:
Format in all cases: in vivo
[1] = test system: blackgrass (Alopecurus myosuroides); assay: Test A preemergence soil spray, visual injury rating 0-100; conditions: 10 days
In short: (§1)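 Loam-sand pots got test material in surfactant-containing solvent, either as a directed soil spray before emergence or on plants at the one- to two-leaf stage. Visual injury (0-100) was read after ten greenhouse days.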

[2] = test system: oat, wild (wild oat, Avena fatua); assay: as above; conditions: 10 days
In short: as §1

[3] = test system: palmer (palmer amaranth, palmer pigweed, Amaranthus palmeri); assay: as above; conditions: 10 days
In short: as §1

[4] = test system: green foxtail (Setaria viridis); assay: as above; conditions: 10 days
In short: as §1

corn (Zea mays) [5] = assay: as above; conditions: 10 days
In short: as §1

[6] = test system: barnyardgrass (Echinochloa crus-galli); assay: as above; conditions: 10 days
In short: as §1

[7] = test system: ryegrass, Italian (italian ryegrass, Lolium multiflorum); assay: as above; conditions: 10 days
In short: as §1

soybean (Glycine max) [8] = assay: as above; conditions: 10 days
In short: as §1

[9] = test system: wheat (Triticum aestivum); assay: as above; conditions: 10 days
In short: as §1

[10] = test system: ragweed (common ragweed, Ambrosia artemisiifolia); assay: as above; conditions: 10 days
In short: as §1

kochia (Bassia scoparia) [11] = assay: as above; conditions: 10 days
In short: as §1

[12] = test system: sedge, umbrella (small-flower umbrella sedge, Cyperus difformis); assay: Test B flooded paddy test, visual plant response rating 0-100; conditions: 250 g ai/ha, Flood, applied to paddy water, evaluated after 13 days
In short: (§2)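 Visual evaluation after 13 days. Water-applied treatment, 3 cm flood depth held constant, plants at 2-leaf stage at treatment.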

rice (Oryza sativa) = assay: as above; conditions: 250 g ai/ha, Flood, applied to paddy water, evaluated after 13 days
In short: as §2

[13] = test system: barnyardgrass (Echinochloa crusgalli); assay: as above; conditions: 250 g ai/ha, Flood, applied to paddy water, evaluated after 13 days
In short: as §2

[14] = test system: ducksalad (Heteranthera limosa); assay: as above; conditions: 250 g ai/ha, Flood, applied to paddy water, evaluated after 13 days
In short: as §2

[15] = test system: blackgrass (Alopecurus myosuroides); assay: Test A postemergence application, visual injury rating 0-100
In short: as §1

[16] = test system: oat, wild (wild oat, Avena fatua); assay: as above
In short: as §1

[17] = test system: palmer (palmer amaranth, palmer pigweed, Amaranthus palmeri); assay: as above
In short: as §1

[18] = test system: green foxtail (Setaria viridis); assay: as above
In short: as §1

corn (Zea mays) [19] = assay: as above
In short: as §1

[20] = test system: barnyardgrass (Echinochloa crus-galli); assay: as above
In short: as §1

[21] = test system: ryegrass, Italian (italian ryegrass, Lolium multiflorum); assay: as above
In short: as §1

soybean (Glycine max) [22] = assay: as above
In short: as §1

[23] = test system: wheat (Triticum aestivum); assay: as above
In short: as §1

[24] = test system: ragweed (common ragweed, Ambrosia artemisiifolia); assay: as above
In short: as §1

[25] = test system: horseweed (Erigeron canadensis); assay: as above
In short: as §1

kochia (Bassia scoparia) [26] = assay: as above
In short: as §1

[27] = 62 g ai/ha, 0 = no effect, 100 = complete control
[28] = 62 g ai/ha, postemergence, 10 days, 0 = no effect, 100 = complete control
[29] = Postemergence, 16 g ai/ha, greenhouse 10 days, 0 no effect, 100 complete control

COC(=O)COC(=O)C1=CCC(NC(=O)C2(C)CN(c3cc(Cl)cc(Cl)c3)C(=O)O2)C1 (centres unmarked) [Compound 110]
Blackgrass plant response rating ([1]; 16 g ai/ha, 0 to 100 scale): 0
Blackgrass plant response rating (0-100) [1, 27]: 30
Oat, Wild plant response rating ([2]; 16 g ai/ha, 0 to 100 scale): 0
Oat, Wild plant response rating (0-100) [2, 27]: 0
Pigweed, Palmer plant response rating ([3]; 16 g ai/ha, 0 to 100 scale): 80
Pigweed, Palmer plant response rating (0-100) [3, 27]: 100
Foxtail, Green plant response rating ([4]; 16 g ai/ha, 0 to 100 scale): 0
Foxtail, Green plant response rating (0-100) [4, 27]: 90
Corn plant response rating (corn (Zea mays) [5]; 16 g ai/ha, 0 to 100 scale): 0
Corn plant response rating (0-100) (corn (Zea mays) [5]; [27]): 30
Barnyardgrass plant response rating ([6]; 16 g ai/ha, 0 to 100 scale): 50
Barnyardgrass plant response rating (0-100) [6, 27]: 100
Ryegrass, Italian plant response rating ([7]; 16 g ai/ha, 0 to 100 scale): 0
Ryegrass, Italian plant response rating (0-100) [7, 27]: 60
Soybean plant response rating (soybean (Glycine max) [8]; 16 g ai/ha, 0 to 100 scale): 10
Soybean plant response rating (0-100) (soybean (Glycine max) [8]; [27]): 0
Wheat plant response rating ([9]; 16 g ai/ha, 0 to 100 scale): 40
Wheat plant response rating (0-100) [9, 27]: 80
Ragweed plant response rating ([10]; 16 g ai/ha, 0 to 100 scale): 0
Ragweed plant response rating (0-100) [10, 27]: 0
Kochia plant response rating (kochia (Bassia scoparia) [11]; 16 g ai/ha, 0 to 100 scale): 0
Kochia plant response rating (0-100) (kochia (Bassia scoparia) [11]; [27]): 0
Plant response rating, Sedge, Umbrella (0 to 100 scale, 0 is no effect and 100 is complete control) [12]: 98
Plant response rating, Rice (0 to 100 scale, 0 is no effect and 100 is complete control) (rice (Oryza sativa)): 40
Plant response rating, Barnyardgrass (0 to 100 scale, 0 is no effect and 100 is complete control) [13]: 60
Plant response rating, Ducksalad (0 to 100 scale, 0 is no effect and 100 is complete control) [14]: 95
Blackgrass plant response rating (0-100) [15, 28]: 100
Blackgrass plant response rating (0 to 100 scale) [15, 29]: 80
Oat, Wild plant response rating (0-100) [16, 28]: 30
Oat, Wild plant response rating (0 to 100 scale) [16, 29]: 20
Pigweed, Palmer plant response rating (0-100) [17, 28]: 100
Pigweed, Palmer plant response rating (0 to 100 scale) [17, 29]: 90
Foxtail, Green plant response rating (0-100) [18, 28]: 90
Foxtail, Green plant response rating (0 to 100 scale) [18, 29]: 90
Corn plant response rating (0-100) (corn (Zea mays) [19]; [28]): 100
Corn plant response rating (0 to 100 scale) (corn (Zea mays) [19]; [29]): 100
Barnyardgrass plant response rating (0-100) [20, 28]: 100
Barnyardgrass plant response rating (0 to 100 scale) [20, 29]: 90
Ryegrass, Italian plant response rating (0-100) [21, 28]: 70
Ryegrass, Italian plant response rating (0 to 100 scale) [21, 29]: 50
Soybean plant response rating (0-100) (soybean (Glycine max) [22]; [28]): 70
Soybean plant response rating (0 to 100 scale) (soybean (Glycine max) [22]; [29]): 30
Wheat plant response rating (0-100) [23, 28]: 90
Wheat plant response rating (0 to 100 scale) [23, 29]: 50
Ragweed plant response rating (0-100) [24, 28]: 80
Ragweed plant response rating (0 to 100 scale) [24, 29]: 50
Horseweed plant response rating (0-100) [25, 28]: 80
Horseweed plant response rating (0 to 100 scale) [25, 29]: 70
Kochia plant response rating (0-100) (kochia (Bassia scoparia) [26]; [28]): 90
Kochia plant response rating (0 to 100 scale) (kochia (Bassia scoparia) [26]; [29]): 90
